In PMC9848351, “Discovery of new pyridine-quinoline hybrids as competitive and non-competitive PIM-1 kinase inhibitors with apoptosis induction and caspase 3/7 activation capabilities” (Journal of Enzyme Inhibition and Medicinal Chemistry, 2023):

Test system: caspase 3/7 in HepG-2 cells
Assay: Caspase 3/7 activation assay (Apo-ONE kit)
Assay type: cell-based, human
Settings: caspase 3/7, relative to untreated HepG2 cells; mean ± SEM
Text: The percentage of caspase 3/7 activation was quantified using the Apo-ONE ® caspase 3/7 kit following the manufacturer’s instructions[27] (Supplementary Page S56).
It’s a fluorescence assay that measures caspase-3 and −7 activities. Caspase 3/7 activators are well known as apoptotic inducers.
Caspase 3/7 activation assay
The Apo-ONE ® caspase 3/7 kit following the manufacturer’s instructions was used for quantifying the percentage of caspase 3/7 activation. The fluorescence substrate present in the kit was cut by caspases to produce fluorescence signal. This signal was measured by the fluorescence omega microplate reader (BMG LabTech, Germany) at 490 nm excitation and 520 nm emission.
Data were expressed as mean ± standard error of the mean (SEM). Statistical significance was estimated by the multiple comparisons Tukey post-hoc analysis of variance (ANOVA) using the SPSS16 program. When p < 0.05, the differences were marked as statistically significant.
PIM-1 and PIM-2 kinase inhibitory activity
PIM-1 and PIM-2 kinase utilizing PIM-1 and PIM-2 Kinase Assay Kit – Promega Corporation catalog #V4032, following the manufacturer’s instructions 26 […]
Information Classification: General

## N#Cc1c(-c2cc3ccccc3[nH]c2=O)cc(-c2cccc(O)c2)nc1S [14a, 6-(3-Hydroxyphenyl)-2-mercapto-4-(2-oxo-1,2-dihydroquinolin-3-yl)pyridine-3-carbonitrile]
  Fold increase in caspase activity: 1.86 ± 0.11 fold
